Experimental data from the NIST ThermoML archive (doi:10.1016/j.tca.2007.07.002).

Experiment: mn = molality of the nth substance listed, in mol/kg
Conditions: 298.15 K, 101 kPa, Liquid, Vibrating tube method

CCCC(N)=O [butanamide] + O
Conditions | mass density [kg/m3]
m1 = 0.2015 | 997.019
m1 = 0.3122 | 997.028
m1 = 0.4106 | 997.052
m1 = 0.5053 | 997.083
m1 = 0.628 | 997.117
m1 = 0.7131 | 997.16
m1 = 0.827 | 997.21
m1 = 0.9204 | 997.269
